Assay results reported in ChEMBL document CHEMBL4376889, “Discovery of a Brain-Penetrant ATP-Competitive Inhibitor of the Mechanistic Target of Rapamycin (mTOR) for CNS Disorders” (J Med Chem, 2020).
Values after ≈ are worked out from the molar mass of the structure shown. Active and inactive are the calls of the source. The rule behind the calls is not given here.

Columns and labels:
[1] = Cmax in Sprague-Dawley rat at 1 mg/kg, iv or 3 mg/kg, po by HPLC analysis; format: ADME, organism-based; details: in vivo
Cytochrome P450 2D6 = Cytochrome P450 2D6 (Homo sapiens, UniProt P10635); experiment: Inhibition of CYP2D6 (unknown origin); format: ADME
[2] = target: Phosphatidylinositol 4,5-bisphosphate 3-kinase catalytic subunit beta isoform (Homo sapiens, UniProt P42338); experiment: Inhibition of PI3Kbeta (unknown origin)
[3] = Cmax in C57BL/6 mouse at 1 mg/kg, iv or 5 mg/kg, po by HPLC analysis; format: ADME, organism-based; details: in vivo
[4] = Ratio of drug concentration in brain to plasma in Sprague-Dawley rat at 3 mg/kg, po incubated for 24 hrs by LC-MS/MS analysis; format: ADME, organism-based; details: read-out: BPR
[5] = target: Serine/threonine-protein kinase mTOR (Rattus norvegicus, UniProt P42346); experiment: Inhibition of mTOR in rat primary cortical neuron assessed as reduction in PS6 phosphorylation incubated for 4 hrs by Western blot analysis (reference value: 19 nM)
[6] = Drug uptake in C57BL/6J mouse brain at 1 mg/kg, po incubated for 3 hrs by LC-MS/MS analysis; format: ADME, organism-based; details: read-out: Drug uptake
[7] = target: Serine/threonine-protein kinase mTOR (Rattus norvegicus, UniProt P42346, C1483Y); experiment: Inhibition of mTOR C1483Y mutant in rat primary cortical neuron assessed as reduction in PS6 phosphorylation incubated for 4 hrs by Western blot analysis (reference value: 19 nM)
Cytochrome P450 3A4 = Cytochrome P450 3A4 (Homo sapiens, UniProt P08684); experiment: Inhibition of CYP3A4 (unknown origin); format: ADME
[8] = Oral bioavailability in C57BL/6 mouse at 5 mg/kg by HPLC analysis; format: ADME, organism-based; details: in vivo
[9] = target: Phosphatidylinositol 4,5-bisphosphate 3-kinase catalytic subunit delta isoform (Homo sapiens, UniProt O00329); experiment: Inhibition of PI3Kdelta (unknown origin)
[10] = target: Serine/threonine-protein kinase ATR (Homo sapiens, UniProt Q13535); experiment: Inhibition of ATR (unknown origin) assessed as reduction in CHK1 phosphorylation by cell based assay
[11] = MRT (0 to t) in Sprague-Dawley rat at 1 mg/kg, iv or 3 mg/kg, po by HPLC analysis; format: ADME, organism-based; details: in vivo
[12] = target: Phosphatidylinositol 4,5-bisphosphate 3-kinase catalytic subunit alpha isoform (Homo sapiens, UniProt P42336); experiment: Inhibition of PI3Kalpha (unknown origin)
[13] = target: DNA-dependent protein kinase catalytic subunit (Homo sapiens, UniProt P78527); experiment: Inhibition of DNAPK (unknown origin)
[14] = AUC (0 to t) in C57BL/6 mouse at 1 mg/kg, iv by HPLC analysis; format: ADME, organism-based; details: in vivo
[15] = Ratio of drug concentration in brain to plasma in C57BL/6 mouse at 1 mg/kg, iv incubated for 2 hrs by LC-MS/MS analysis; format: ADME, organism-based; details: read-out: BPR
[16] = Selectivity index, ratio of IC50 for PDE4D (unknown origin) to IC50 for inhibition of mTOR in mouse MEF cells harboring TSC1 deletion mutant; format: cell-based
[17] = target: Serine/threonine-protein kinase mTOR (Mus musculus, UniProt Q9JLN9); experiment: Inhibition of mTOR in mouse MEF cells harboring TSC1 deletion mutant assessed as reduction in PS6 phosphorylation incuabted for 2 hrs alexa fluor 594 and Hoechst staining based fluorescence assay; format: cell-based
[18] = Volume of distribution at steady state in C57BL/6 mouse at 1 mg/kg, iv or 5 mg/kg, po by HPLC analysis; format: ADME, organism-based; details: in vivo, read-out: Vdss
[19] = Clearance in C57BL/6 mouse at 1 mg/kg, iv or 5 mg/kg, po by HPLC analysis; format: ADME, organism-based; details: in vivo
[20] = Clearance in Sprague-Dawley rat at 1 mg/kg, iv or 3 mg/kg, po by HPLC analysis; format: ADME, organism-based; details: in vivo
[21] = Ratio of drug concentration in brain to plasma in Sprague-Dawley rat at 3 mg/kg, po incubated for 1 hr by LC-MS/MS analysis; format: ADME, organism-based; details: read-out: BPR
[22] = Solubility of compound at pH 6.8; format: physicochemical; details: buffer
Cytochrome P450 2C9 = Cytochrome P450 2C9 (Homo sapiens, UniProt P11712); experiment: Inhibition of CYP2C9 (unknown origin); format: ADME
[23] = Protein binding in Sprague-Dawley rat brain homogenate at 5 uM incubated for 4 hrs by LC-MS/MS analysis; format: ADME, tissue-based; details: read-out: PB (converted)
[24] = Selectivity index, ratio of IC50 for ATR (unknown origin) to IC50 for inhibition of mTOR in mouse MEF cells harboring TSC1 deletion mutant; format: cell-based
Mus musculus [25] = experiment: In vivo inhibition of PI3KCA in C57BL/6J mouse assessed as reduction in AKT phosphorylation Thr308 at 1 to 10 mg/kg, po measured after 24 hrs by Western blot analysis; format: functional, organism-based
[26] = Ratio of drug concentration in brain to plasma in C57BL/6 mouse at 1 mg/kg, iv incubated for 7 hrs by LC-MS/MS analysis; format: ADME, organism-based; details: read-out: BPR
[27] = Ratio of drug concentration in brain to plasma in C57BL/6 mouse at 1 mg/kg, iv incubated for 0.5 hrs by LC-MS/MS analysis; format: ADME, organism-based; details: read-out: BPR
[28] = Ratio of drug concentration in brain to plasma in C57BL/6J mouse at 10 mg/kg, po incubated for 3 hrs by LC-MS/MS analysis; format: ADME, organism-based; details: read-out: BPR
[29] = target: Phosphatidylinositol 4,5-bisphosphate 3-kinase catalytic subunit gamma isoform (Homo sapiens, UniProt P48736); experiment: Inhibition of PI3Kgamma (unknown origin)
[30] = target: Serine/threonine-protein kinase mTOR (Rattus norvegicus, UniProt P42346, L1460P); experiment: Inhibition of mTOR L1460P mutant in rat primary cortical neuron assessed as reduction in PS6 phosphorylation incubated for 4 hrs by Western blot analysis (reference value: 19 nM)
[31] = Protein binding in Sprague-Dawley rat plasma at 5 uM incubated for 4 hrs by LC-MS/MS analysis; format: ADME, cell-free; details: read-out: PPB (converted)
[32] = Oral bioavailability in Sprague-Dawley rat at 3 mg/kg by HPLC analysis; format: ADME, organism-based; details: in vivo
[33] = Protein binding in C57BL/6 mouse plasma at 5 uM incubated for 4 hrs by LC-MS/MS analysis; format: ADME, cell-free; details: read-out: PPB
[34] = MRT (0 to t) in C57BL/6 mouse at 1 mg/kg, iv or 5 mg/kg, po by HPLC analysis; format: ADME, organism-based; details: in vivo
Mus musculus [35] = experiment: In vivo inhibition of mTOR pathway in C57BL/6J mouse assessed as reduction in mTORC1/mTORC2 complex by measuring PS6 phosphorylation level at 1 to 10 mg/kg, po measured after 8 hrs by Western blot analysis; format: functional, organism-based

Cytochrome P450 2D6, sequence (P10635 whole entry, canonical isoform): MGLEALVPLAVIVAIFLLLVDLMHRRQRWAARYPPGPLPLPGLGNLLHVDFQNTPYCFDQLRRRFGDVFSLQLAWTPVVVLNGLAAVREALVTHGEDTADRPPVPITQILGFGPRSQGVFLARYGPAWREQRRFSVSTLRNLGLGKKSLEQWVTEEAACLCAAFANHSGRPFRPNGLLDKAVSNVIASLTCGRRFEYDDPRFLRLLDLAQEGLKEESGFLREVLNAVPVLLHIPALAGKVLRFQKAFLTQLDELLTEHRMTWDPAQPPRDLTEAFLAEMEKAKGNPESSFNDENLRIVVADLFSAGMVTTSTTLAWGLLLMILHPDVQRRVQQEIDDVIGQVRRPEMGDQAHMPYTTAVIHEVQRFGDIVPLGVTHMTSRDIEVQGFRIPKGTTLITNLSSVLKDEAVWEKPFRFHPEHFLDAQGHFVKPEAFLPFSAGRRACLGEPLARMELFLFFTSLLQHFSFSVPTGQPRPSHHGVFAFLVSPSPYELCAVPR
Serine/threonine-protein kinase ATR, sequence (Q13535 whole entry): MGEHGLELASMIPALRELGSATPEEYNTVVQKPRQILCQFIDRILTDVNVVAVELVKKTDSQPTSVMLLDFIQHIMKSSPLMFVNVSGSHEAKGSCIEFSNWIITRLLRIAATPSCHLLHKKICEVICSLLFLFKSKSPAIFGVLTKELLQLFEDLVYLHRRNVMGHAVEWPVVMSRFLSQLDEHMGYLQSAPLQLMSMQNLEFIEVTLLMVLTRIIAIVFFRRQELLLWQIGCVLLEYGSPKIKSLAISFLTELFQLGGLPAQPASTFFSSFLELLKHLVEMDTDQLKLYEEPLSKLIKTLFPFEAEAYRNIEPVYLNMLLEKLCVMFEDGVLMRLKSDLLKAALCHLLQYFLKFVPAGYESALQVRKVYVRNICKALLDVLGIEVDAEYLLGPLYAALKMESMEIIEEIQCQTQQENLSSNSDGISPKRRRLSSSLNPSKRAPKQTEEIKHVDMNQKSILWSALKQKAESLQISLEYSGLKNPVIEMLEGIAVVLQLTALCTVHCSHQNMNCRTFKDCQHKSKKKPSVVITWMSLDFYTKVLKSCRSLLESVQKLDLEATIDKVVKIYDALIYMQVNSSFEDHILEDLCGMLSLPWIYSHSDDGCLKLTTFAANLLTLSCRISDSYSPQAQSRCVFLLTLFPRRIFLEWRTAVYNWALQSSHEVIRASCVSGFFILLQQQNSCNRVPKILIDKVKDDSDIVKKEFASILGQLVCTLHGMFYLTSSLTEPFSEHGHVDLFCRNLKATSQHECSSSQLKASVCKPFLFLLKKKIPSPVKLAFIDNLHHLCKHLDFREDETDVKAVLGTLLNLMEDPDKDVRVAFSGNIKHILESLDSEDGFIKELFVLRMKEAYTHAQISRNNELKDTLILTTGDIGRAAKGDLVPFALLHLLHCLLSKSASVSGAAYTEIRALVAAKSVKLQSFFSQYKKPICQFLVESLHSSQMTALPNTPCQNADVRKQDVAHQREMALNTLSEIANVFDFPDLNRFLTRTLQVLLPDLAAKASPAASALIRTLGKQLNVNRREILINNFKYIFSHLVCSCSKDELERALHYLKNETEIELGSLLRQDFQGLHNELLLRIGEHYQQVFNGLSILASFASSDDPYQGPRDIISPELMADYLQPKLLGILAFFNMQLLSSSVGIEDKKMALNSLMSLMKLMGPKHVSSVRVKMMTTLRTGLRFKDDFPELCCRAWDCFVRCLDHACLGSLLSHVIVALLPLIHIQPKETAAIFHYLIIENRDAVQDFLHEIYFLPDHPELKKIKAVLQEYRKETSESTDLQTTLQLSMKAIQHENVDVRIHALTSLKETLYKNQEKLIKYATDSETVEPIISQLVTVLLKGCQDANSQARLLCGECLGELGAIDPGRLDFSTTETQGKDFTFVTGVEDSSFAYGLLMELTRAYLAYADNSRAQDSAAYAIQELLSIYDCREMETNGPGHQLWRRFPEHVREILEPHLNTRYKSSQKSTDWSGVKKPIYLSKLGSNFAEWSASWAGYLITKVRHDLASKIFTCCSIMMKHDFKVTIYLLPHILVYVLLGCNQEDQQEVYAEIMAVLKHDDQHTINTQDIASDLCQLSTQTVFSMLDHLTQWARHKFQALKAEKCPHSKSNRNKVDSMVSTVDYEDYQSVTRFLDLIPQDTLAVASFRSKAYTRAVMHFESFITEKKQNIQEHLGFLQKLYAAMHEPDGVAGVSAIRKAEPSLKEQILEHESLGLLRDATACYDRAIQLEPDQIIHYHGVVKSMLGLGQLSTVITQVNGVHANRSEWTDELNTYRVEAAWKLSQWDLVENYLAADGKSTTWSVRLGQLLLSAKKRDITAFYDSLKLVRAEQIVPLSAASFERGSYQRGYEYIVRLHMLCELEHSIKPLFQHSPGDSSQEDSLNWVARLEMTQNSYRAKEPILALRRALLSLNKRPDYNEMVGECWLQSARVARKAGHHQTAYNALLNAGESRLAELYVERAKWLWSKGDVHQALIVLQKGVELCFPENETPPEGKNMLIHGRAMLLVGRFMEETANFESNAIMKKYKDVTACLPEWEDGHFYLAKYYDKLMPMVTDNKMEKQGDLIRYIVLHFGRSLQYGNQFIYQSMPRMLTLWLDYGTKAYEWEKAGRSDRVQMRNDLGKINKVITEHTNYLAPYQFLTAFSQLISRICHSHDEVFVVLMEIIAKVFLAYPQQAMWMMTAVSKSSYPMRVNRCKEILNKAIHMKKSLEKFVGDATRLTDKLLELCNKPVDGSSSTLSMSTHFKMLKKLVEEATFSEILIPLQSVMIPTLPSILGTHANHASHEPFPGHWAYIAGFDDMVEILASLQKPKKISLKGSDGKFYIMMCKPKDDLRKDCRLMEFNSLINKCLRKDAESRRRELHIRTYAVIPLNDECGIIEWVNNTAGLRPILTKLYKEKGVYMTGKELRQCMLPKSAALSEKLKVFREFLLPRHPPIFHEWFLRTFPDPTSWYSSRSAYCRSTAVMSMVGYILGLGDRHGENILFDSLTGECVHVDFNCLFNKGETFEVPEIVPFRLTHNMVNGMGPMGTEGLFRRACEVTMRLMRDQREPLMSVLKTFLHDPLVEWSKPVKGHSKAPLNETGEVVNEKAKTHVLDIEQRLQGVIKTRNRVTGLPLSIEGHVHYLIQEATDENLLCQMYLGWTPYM
Phosphatidylinositol 4,5-bisphosphate 3-kinase catalytic subunit beta isoform, sequence (P42338 whole entry, canonical isoform): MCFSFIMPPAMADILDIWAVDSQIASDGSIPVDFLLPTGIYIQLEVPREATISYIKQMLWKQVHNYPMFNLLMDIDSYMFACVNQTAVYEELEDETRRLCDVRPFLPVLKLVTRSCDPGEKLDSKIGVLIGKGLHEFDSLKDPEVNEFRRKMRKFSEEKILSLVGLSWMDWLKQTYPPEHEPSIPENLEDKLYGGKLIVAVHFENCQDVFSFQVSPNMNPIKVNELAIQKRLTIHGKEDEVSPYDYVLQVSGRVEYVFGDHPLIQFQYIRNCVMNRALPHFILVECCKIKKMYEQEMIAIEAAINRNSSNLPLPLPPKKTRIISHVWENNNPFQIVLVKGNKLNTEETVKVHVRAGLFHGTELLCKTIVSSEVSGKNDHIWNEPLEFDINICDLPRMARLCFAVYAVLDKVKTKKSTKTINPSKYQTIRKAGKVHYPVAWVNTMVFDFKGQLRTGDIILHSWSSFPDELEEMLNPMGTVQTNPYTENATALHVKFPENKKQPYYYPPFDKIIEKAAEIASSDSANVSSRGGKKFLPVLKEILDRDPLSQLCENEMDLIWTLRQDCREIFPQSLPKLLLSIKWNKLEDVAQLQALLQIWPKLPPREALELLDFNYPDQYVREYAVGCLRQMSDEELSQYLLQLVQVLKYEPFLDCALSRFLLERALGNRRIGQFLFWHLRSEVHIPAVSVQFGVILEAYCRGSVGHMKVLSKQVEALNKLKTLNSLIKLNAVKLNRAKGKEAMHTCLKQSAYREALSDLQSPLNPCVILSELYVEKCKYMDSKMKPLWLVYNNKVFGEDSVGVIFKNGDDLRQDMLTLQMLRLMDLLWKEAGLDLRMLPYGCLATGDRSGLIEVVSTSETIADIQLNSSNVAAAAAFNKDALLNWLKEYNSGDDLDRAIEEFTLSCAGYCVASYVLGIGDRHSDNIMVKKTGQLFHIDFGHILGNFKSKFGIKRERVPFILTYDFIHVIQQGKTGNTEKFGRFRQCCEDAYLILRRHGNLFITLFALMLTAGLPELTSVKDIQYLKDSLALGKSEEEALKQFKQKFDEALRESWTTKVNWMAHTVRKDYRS
Cytochrome P450 3A4, sequence (P08684 whole entry): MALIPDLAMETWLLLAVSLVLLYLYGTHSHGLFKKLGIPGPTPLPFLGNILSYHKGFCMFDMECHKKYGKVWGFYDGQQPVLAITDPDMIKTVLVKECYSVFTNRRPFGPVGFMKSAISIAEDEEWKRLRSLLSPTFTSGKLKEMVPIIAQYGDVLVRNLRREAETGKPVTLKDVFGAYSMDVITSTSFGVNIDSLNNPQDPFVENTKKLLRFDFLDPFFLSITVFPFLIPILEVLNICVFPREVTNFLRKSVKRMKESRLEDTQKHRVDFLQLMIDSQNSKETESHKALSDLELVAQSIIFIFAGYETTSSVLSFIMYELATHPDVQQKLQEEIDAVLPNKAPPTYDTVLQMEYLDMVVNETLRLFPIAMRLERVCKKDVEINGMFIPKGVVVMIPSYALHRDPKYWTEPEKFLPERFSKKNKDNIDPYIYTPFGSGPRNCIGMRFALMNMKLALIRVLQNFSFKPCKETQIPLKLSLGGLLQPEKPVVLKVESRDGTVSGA

C[C@@H]1COCCN1c1nc(N2CCOC[C@@H]2C)nc2sc(-c3cc[nH]n3)nc12
Cmax [1]: 1120 nM | IC50 (Cytochrome P450 2D6): > 50000 nM | IC50 [2]: > 10000 nM | Cmax [3]: 2700 nM | Kp at 24 h [4]: 3.1 | IC50 [5]: 17 nM | concentration at 3 h [6]: 929 nM | IC50 [7]: 37 nM | K (Cytochrome P450 3A4): 0.006 min⁻¹ | bioavailability [8]: 61% | IC50 [9]: 1700 nM | IC50 [10]: 394 nM | MRT last [11]: 4.3 h | IC50 [12]: 2200 nM | IC50 [13]: 1290 nM | AUC(0-t) [14]: 4.41 µM·h | Kp at 2 h [15]: 1.2 | Ratio IC50 [16]: 38 | IC50 [17]: 5.6 nM | Vd [18]: 2.3 L/kg | clearance [19]: 6.5 mL/min/kg | clearance [20]: 9.5 mL/min/kg | Kp at 1 h [21]: 4 | solubility [22]: 120 µg/mL (≈ 299 µM) | IC50 (Cytochrome P450 2C9): > 50000 nM | fraction unbound at 4 h, 5 µM [23]: 0.004 | Ratio IC50 [24]: 70 | inhibition (Mus musculus [25]): inactive | Kp at 7 h [26]: 1.2 | Kp at 0.5 h [27]: 1 | Kp at 3 h [28]: 1.3 | IC50 [29]: > 10000 nM | IC50 [30]: 11 nM | fraction unbound at 4 h, 5 µM [31]: 0.012 | bioavailability [32]: 81% | fraction unbound at 4 h, 5 µM [33]: < 0.01 | MRT last [34]: 2.6 h | inhibition (Mus musculus [35]): Active
